Assays:
miR-122 promoter [1] = test: miR-122 promoter luciferase reporter (PmiR-122-900) in BNL-1ME cells; type: cell-based, mouse; details: 10 μM overnight, measured 48 hours post transfection, normalized to Renilla
Protocol: (§1) Huh7 cells or BNL-1ME cells were transfected with the reporter constructs PmiR-122-900 (wt) or PmiR-122-900 mutated (mut) at RORα binding site. These constructs harbour about 1 kb of miR-122 promoter sequence (wt or mutated at the ROR alpha binding site), ligated to a luciferase (Luc) reporter gene. […] Controls included incubation of the cells with 0.4% DMSO (negative control), or with 75 μM Lauric acid (LA), which is a known activator of ROR-alpha. Luciferase activity was measured 48 hours post transfection and normalized to Renilla Luciferase activity expressed from a co-transfected pRL plasmid.

miR-34a = miR-34a expression and secretion in Huh7 cells (RT-qPCR); type: cell-based, human; details: 10 μM overnight
Protocol: Huh7 cells treated with ROR-alpha agonist SR1078 (10 μM) overnight (o/n). Upon treatment, primary miR-34a expression levels and mature miR-34a secretion were elevated. miR-34a levels were tested in the cells and in their culture medium using RT-qPCR. The results clearly show elevation in the levels of miR-34a in the cells, as well as a marked elevation of the miR-34a in the external medium, indicating the miR-34a is secreted from the cells.

miR-122 [2] = test: In vivo miR-122 and CD24 mRNA levels after injection into BALB/C mice
Protocol: As shown in FIG. 8A—SR1078 agent (ROR alpha activator) was injected (1-5 μM) into BALB/C mice and was able to induce miR-122 expression within 3 hours, as indicated by the increased relative expression levels of miR-122 in the liver. miRNA-122 increased expression is in hepatocytes (“producing cells”).
The CD24 gene, the protein product of which is expressed on hepatic progenitors, is a target of miR-122.

miR-122 [3] = test: qRT-PCR of miR-122 in medium of Huh7 cells; type: cell-based, human; details: 10 μM for 24 hours, normalized to spiked miR-39
Protocol: Shown in FIG. 4C is qRT-PCR analysis of miR-122 and miR-18 (negative control) in RNA extracted from the medium of Huh7 cells treated with 0.4% DMSO, 75 μM lauric acid (LA) or 10 μM RORα agonist (SR1078) for 24 hours. The microRNA levels in the cells' medium were normalized to spiked C. elegance miR-39.

miR-122 promoter [4] = test: miR-122 promoter luciferase reporter (PmiR-122-900) in Huh7 cells; type: cell-based, human; details: 10 μM overnight, measured 48 hours post transfection, normalized to Renilla
Protocol: as §1

miR-122 [5] = test: AGPAT1-3'UTR (miR-122 target site) luciferase reporter in Huh7 cells; type: cell-based, human; details: 10 μM for 24 hours, DNMT1 3'-UTR as negative control
Protocol: Next, Huh7 cells were transfected with a reporter plasmid carrying the human AGPAT1-3′UTR (miR-122 target site) or a negative control reporter plasmid, DNMT1 3′-UTR. Cells were treated for 24 hours with: 0.4% DMSO, or with 75 μM lauric acid (LA) or with RORα agonist (10 μM SR1078) for 24 hours. Presented in FIG. 4B are bar graphs showing the results of the Luciferase assay. Luciferase activity was measured 48 hours post transfection and normalized to Renilla Luciferase activity expressed from a co-transfected pRL plasmid.

miR-122 [6] = test: In vivo miR-122 and CD24 mRNA levels after injection into MDR2 knockout mice; details: three months old MDR2 KO mice, 6 hours after administration
Protocol: Similar effect is also apparent in measurements performed 6 hours after administration of the inducing agent, to three months old MDR2 knockout (KO) mice (which is a mice that develops liver cancer). This is presented in FIGS. 8C-D, which show the increase in relative levels of miR-122 (FIG. 8C) in liver extracts (hepatocytes) and the reciprocal reduction of CD24 relative expression levels (FIG. 8D), in progenitor cells.

Structure (SMILES): O=C(Nc1ccc(C(O)(C(F)(F)F)C(F)(F)F)cc1)c1ccc(C(F)(F)F)cc1 [SR1078]
- miR-122 promoter activity (Luciferase reporter) (miR-122 promoter [1]): activation of the miR-122 promoter
- mature miR-34a secretion (miR-34a; RT-qPCR in culture medium): elevated
- primary miR-34a expression levels (miR-34a; RT-qPCR in the cells): elevated
- relative levels (RQ) of mRNA of CD24 in hepatic progenitor cells (miR-122 [2]; after injection of SR1078): reduced
- relative expression levels of miR-122 in the liver (miR-122 [2]; injected (1-5 μM), 3 hours): increased
- miRNA-122 levels in the medium (miR-122 [3]): increase
- miR-122 promoter activity (Luciferase reporter) (miR-122 promoter [4]): activation of the miR-122 promoter
- expression of active miR-122 acting on AGPAT1 reporter construct (Luciferase assay) (miR-122 [5]): increased expression of active miRNA
- CD24 relative expression levels in progenitor cells (miR-122 [6]): reduction
- relative levels of miR-122 in liver extracts (hepatocytes) (miR-122 [6]): increase

Source: patent US11865090B2, “Tumor suppressive microRNAs for cancer therapy” (Hadasit Medical Research Services and Development Ltd., priority 2018, dated 2024)
